Measured values from patent US11040033B2 (Gilead Sciences, Inc., priority 2017, dated 2021).

These compounds were tested against T1, IDO1 (Homo sapiens, UniProt P14902) (assay: Cell-based (HeLa) assay for measurement of IDO1 inhibition (kynurenine levels in supernatant after IFNγ induction)). Details: H1-HeLa cells, IFNγ-induced IDO1, 48 hour incubation, kynurenine absorbance at 480 nm; geometric mean of a minimum of four determinations.
T1 construct: HeLa cells were treated with a test compound in the presence of IFNγ, which induces IDO1 expression; endogenous in cells; host or cells: H1-HeLa cells (ATCC #CRL-1958), induced with IFNγ
T1 sequence (P14902 whole entry): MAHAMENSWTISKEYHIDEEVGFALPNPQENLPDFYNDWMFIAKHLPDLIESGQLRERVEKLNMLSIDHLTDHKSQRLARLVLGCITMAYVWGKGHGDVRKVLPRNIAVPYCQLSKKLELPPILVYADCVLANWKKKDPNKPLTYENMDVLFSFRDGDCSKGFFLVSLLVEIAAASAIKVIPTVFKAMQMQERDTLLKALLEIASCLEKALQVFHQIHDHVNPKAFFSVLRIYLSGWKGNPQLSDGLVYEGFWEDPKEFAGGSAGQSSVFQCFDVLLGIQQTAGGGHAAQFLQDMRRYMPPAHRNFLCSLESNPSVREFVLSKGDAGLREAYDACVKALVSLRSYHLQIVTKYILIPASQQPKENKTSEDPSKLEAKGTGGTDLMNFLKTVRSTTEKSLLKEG
Protocol: To measure IDO1 inhibition in tissue culture, HeLa cells were treated with a test compound in the presence of IFNγ, which induces IDO1 expression. Following incubation, cell supernatants were assayed for kynurenine levels, an indicator of IDO1 activity.
H1-HeLa cells (ATCC #CRL-1958) were seeded in 384-well plates (Greiner #82051-282) at a volume […] (Corning #15-018-CM) supplemented with 10% FBS (Corning #35-011-CV) and 1% P/S/G (Corning #30-009-CL) at a density of 1,250 cells/well and incubated overnight at 37° C., 5% CO2/100% humidity. The following day, the test compounds were added in DMSO (0.5% final) at various concentrations, and IDO1 was inducibly expressed by the addition of 50 uL/well of 50 ng/mL of INFγ(Peprotech #300-02) in cell plating media. As a positive control, 50 uL of the cell plating media without IFNγ was added to several wells. Following a 48 hour incubation, the plates were spun down at 1,200 RPM for 5 min at 10° C. 65 μL/well of the supernatant was then transferred to new 384-well plates (Thermo #262160) that contained 10 uL/well of 30% TCA (Sigma #T0699), and the plates were sealed and incubated at 60° C. for 30 min. The plates were then centrifuged for 15 min at 2,000 RPM at 10° C. 40 μL/well of the supernatant was transferred to new 384-well plates (Thermo #262160) and was reacted with 40 μL/well of 2% (w/v) p-dimethylaminobenzaldehyde (Sigma #156417) in glacial acetic acid (Sigma #A6283). The reaction was incubated at room temperature for 10 min and absorbance at 480 nm was read using a PerkinElmer Envision plate reader.
Data in Table 1 were normalized based on positive (−IFNγ) and negative (+IFNγ) controls and EC50 values were calculated from the fit of the dose-response curves to a four-parameter equation. All EC50 values represent geometric mean values of a minimum of four determinations. These assays generally produced results within 2-fold of the reported mean.

EC50 | Structure (SMILES)
13.3 nM | Cc1ncc(-c2cccn3c(-c4cccc(F)c4Cl)ncc23)cc1C(=O)Nc1ccc(F)cc1 [Example 87, 5-(3-(2-chloro-3-fluorophenyl)imidazo[1,5-a]pyridin-8-yl)-N-(4-fluorophenyl)-2-methylnicotinamide]
67.2 nM | Fc1ccc2[nH]c(-c3cc(-c4cccn5c(-c6cccc(F)c6F)ncc45)ccc3Cl)nc2c1 [Example 96, 2-(2-chloro-5-(3-(2,3-difluorophenyl)imidazo[1,5-a]pyridin-8-yl)phenyl)-5-fluoro-1H-benzo[d]imidazole]
31.1 nM | O=C(Nc1ccc(F)cc1)c1cc(-c2cccn3c(-c4ccccn4)ncc23)ccc1C(F)(F)F [Example 33, N-(4-fluorophenyl)-5-(3-(pyridin-2-yl)imidazo[1,5-a]pyridin-8-yl)-2-(trifluoromethyl)benzamide]
12.2 nM | O=C(Nc1ccc(F)cc1)c1cc(-c2cccn3c(-c4cccc(F)c4F)ncc23)ccc1Cl [Example 70, 2-chloro-5-(3-(2,3-difluorophenyl)imidazo[1,5-a]pyridin-8-yl)-N-(4-fluorophenyl)benzamide]
29.9 nM | Cc1ncc(-c2cccn3c(-c4cccc(F)c4F)cnc23)cc1C(=O)Nc1ccc(Cl)cc1 [Example 61, N-(4-chlorophenyl)-5-(3-(2,3-difluorophenyl)imidazo[1,2-a]pyridin-8-yl)-2-methylnicotinamide]
192 nM | Cc1ccc(-c2cccn3c(-c4cccc(F)c4F)nnc23)cc1C(=O)Nc1ccc(F)cc1 [Example 20, 5-(3-(2,3-difluorophenyl)-[1,2,4]triazolo[4,3-a]pyridin-8-yl)-N-(4-fluorophenyl)-2-methylbenzamide]
17.2 nM | Cc1ncc(-c2cccn3c(-c4cccc(F)c4F)ncc23)cc1C(=O)Nc1ccc(F)cc1 [Example 43, 5-(3-(2,3-difluorophenyl)imidazo[1,5-a]pyridin-8-yl)-N-(4-fluorophenyl)-2-methylnicotinamide]
1200 nM | Cn1nncc1-c1ncc2c(-c3ccc(C(F)(F)F)c(C(=O)Nc4ccc(F)cc4)c3)cccn12 [Example 8, N-(4-fluorophenyl)-5-(3-(1-methyl-1H-1,2,3-triazol-5-yl)imidazo[1,5-a]pyridin-8-yl)-2-(trifluoromethyl)benzamide]
38.3 nM | O=C(Nc1ccc(F)cc1)c1cc(-c2cccn3c(-c4cccnc4)ncc23)ccc1C(F)(F)F [Example 31, N-(4-fluorophenyl)-5-(3-(pyridin-3-yl)imidazo[1,5-a]pyridin-8-yl)-2-(trifluoromethyl)benzamide]
36.6 nM | Fc1ccc2[nH]c(-c3cc(-c4cccn5c(-c6cccc(F)c6F)ncc45)cnc3C(F)(F)F)nc2c1 [Example 98, 2-(5-(3-(2,3-difluorophenyl)imidazo[1,5-a]pyridin-8-yl)-2-(trifluoromethyl)pyridin-3-yl)-5-fluoro-1H-benzo[d]imidazole]
64.9 nM | Cc1ncc(-c2cccn3c(-c4cccc(F)c4F)ncc23)cc1-c1nc2cc(F)ccc2[nH]1 [Example 97, 2-(5-(3-(2,3-difluorophenyl)imidazo[1,5-a]pyridin-8-yl)-2-methylpyridin-3-yl)-5-fluoro-1H-benzo[d]imidazole]
17.7 nM | Cc1ccc(-c2cccn3c(-c4cccc(F)c4F)ncc23)c(F)c1C(=O)Nc1ccc(F)cc1 [Example 42, 3-(3-(2,3-difluorophenyl)imidazo[1,5-a]pyridin-8-yl)-2-fluoro-N-(4-fluorophenyl)-6-methylbenzamide]
21.1 nM | Cc1ncc(-c2cccn3c(-c4cccc(F)c4F)ncc23)cc1C(=O)Nc1ccc(F)cn1 [Example 60, 5-(3-(2,3-difluorophenyl)imidazo[1,5-a]pyridin-8-yl)-N-(5-fluoropyridin-2-yl)-2-methylnicotinamide]
2380 nM | Cc1cccc(-c2ncc3c(-c4ccc(C)c(C(=O)Nc5ccc(F)cc5)c4)nccn23)c1 [Example 53, N-(4-fluorophenyl)-2-methyl-5-(3-(m-tolyl)imidazo[1,5-a]pyrazin-8-yl)benzamide]
460 nM | Cc1ncc(-c2cccn3c(C4CCCC4)ncc23)cc1C(=O)Nc1ccc(F)cc1 [Example 74, 5-(3-cyclopentylimidazo[1,5-a]pyridin-8-yl)-N-(4-fluorophenyl)-2-methylnicotinamide]
44.7 nM | Cc1ccccc1-c1ncc2c(-c3cnc(C)c(C(=O)Nc4ccc(F)cc4)c3)cccn12 [Example 29, N-(4-fluorophenyl)-2-methyl-5-(3-(o-tolyl)imidazo[1,5-a]pyridin-8-yl)nicotinamide]
237 nM | O=C(Nc1ccc(F)cc1)c1cc(-c2cccn3c(-c4cccnn4)ncc23)ccc1C(F)(F)F [Example 17, N-(4-fluorophenyl)-5-(3-(pyridazin-3-yl)imidazo[1,5-a]pyridin-8-yl)-2-(trifluoromethyl)benzamide]
2160 nM | Cc1ccc(-c2cccn3c(-c4cccnc4C)nnc23)cc1C(=O)Nc1ccc(F)cc1 [Example 4, N-(4-fluorophenyl)-2-methyl-5-(3-(2-methylpyridin-3-yl)-[1,2,4]triazolo[4,3-a]pyridin-8-yl)benzamide]
207 nM | O=C(Nc1ccc(F)cc1)c1cccc(-c2cccn3c(-c4cccc(F)c4F)ncc23)n1 [Example 83, 6-(3-(2,3-difluorophenyl)imidazo[1,5-a]pyridin-8-yl)-N-(4-fluorophenyl)picolinamide]
23.8 nM | O=C(Nc1ccc(F)cc1)c1nc(-c2cccn3c(-c4cccc(F)c4F)ncc23)ccc1C(F)(F)F [Example 38, 6-(3-(2,3-difluorophenyl)imidazo[1,5-a]pyridin-8-yl)-N-(4-fluorophenyl)-3-(trifluoromethyl)picolinamide]
15.7 nM | Cc1ncc(-c2cccn3c(-c4ccccc4F)ncc23)cc1C(=O)Nc1ccc(F)cc1 [Example 49, N-(4-fluorophenyl)-5-(3-(2-fluorophenyl)imidazo[1,5-a]pyridin-8-yl)-2-methylnicotinamide]
3110 nM | Cc1ccc(-c2nccn3c(-c4ccccc4C)ncc23)cc1C(=O)Nc1ccc(F)cc1 [Example 52, N-(4-fluorophenyl)-2-methyl-5-(3-(o-tolyl)imidazo[1,5-a]pyrazin-8-yl)benzamide]
23.1 nM | Cc1ccc(-c2cccn3c(-c4ncco4)ncc23)cc1C(=O)Nc1ccc(F)cc1 [Example 40, N-(4-fluorophenyl)-2-methyl-5-(3-(oxazol-2-yl)imidazo[1,5-a]pyridin-8-yl)benzamide]
24.2 nM | Cc1ccc(-c2cccn3c(-c4ncccn4)ncc23)cc1C(=O)Nc1ccc(F)cc1 [Example 37, N-(4-fluorophenyl)-2-methyl-5-(3-(pyrimidin-2-yl)imidazo[1,5-a]pyridin-8-yl)benzamide]
25.2 nM | O=C(Nc1ccc(F)cc1)c1cc(-c2cccn3c(-c4cnccn4)ncc23)ccc1C(F)(F)F [Example 36]
399 nM | Cc1cnc(-c2cccn3c(-c4cccc(F)c4F)ncc23)nc1C(=O)Nc1ccc(F)cc1 [Example 65, 2-(3-(2,3-difluorophenyl)imidazo[1,5-a]pyridin-8-yl)-N-(4-fluorophenyl)-5-methylpyrimidine-4-carboxamide]
112 nM | Cc1ncc(-c2cccn3c(-c4cc(F)ccn4)ncc23)cc1C(=O)Nc1ccc(F)cc1 [Example 23, N-(4-fluorophenyl)-5-(3-(4-fluoropyridin-2-yl)imidazo[1,5-a]pyridin-8-yl)-2-methylnicotinamide]
730 nM | Cc1ccn2c(-c3cccc(F)c3F)ncc2c1-c1cnc(C)c(C(=O)Nc2ccc(F)cc2)c1 [Example 77, 5-(3-(2,3-difluorophenyl)-7-methylimidazo[1,5-a]pyridin-8-yl)-N-(4-fluorophenyl)-2-methylnicotinamide]
1890 nM | Cc1ncc(-c2ccnn3c(-c4cccc(F)c4F)nnc23)cc1C(=O)Nc1ccc(F)cc1 [Example 50, 5-(3-(2,3-difluorophenyl)-[1,2,4]triazolo[4,3-b]pyridazin-8-yl)-N-(4-fluorophenyl)-2-methylnicotinamide]
307 nM | Cc1ncc(-c2cccn3c(-c4cccc(F)c4F)ncc23)cc1C(=O)Nc1ccc(F)c(Br)c1 [Example 63, N-(3-bromo-4-fluorophenyl)-5-(3-(2,3-difluorophenyl)imidazo[1,5-a]pyridin-8-yl)-2-methylnicotinamide]

Structure (SMILES) | EC50
Cc1ncc(-c2cccn3c(-c4cccc(F)c4F)ncc23)cc1C(=O)Nc1ccc(C#N)c(C(F)(F)F)c1 [Example 59, N-(4-cyano-3-(trifluoromethyl)phenyI)-5-(3-(2,3-difluorophenyl)imidazo[1,5-a]pyridin-8-yl)-2-methylnicotinamide] | 227 nM
